ChEMBL document CHEMBL1151682, “Insecticidal neolignans from Piper decurrens” (J Nat Prod, 1996)
Calls of active or inactive are those of the source. The rule behind the calls is not given here.

Test system: Aedes atropalpus
Test: Toxicity in sOchlerotatus atropalpus second-instar larvae at 10 ppm after 24 hrs
Type: functional, organism-based

**Q.** With C/C=C/c1ccc2oc(-c3ccc(O)cc3)c(C)c2c1 as the molecule, how does the Activity read?
**A.** Active

**Q.** C[C@H]1c2cc(C=O)ccc2O[C@@H]1c1ccc(O)cc1 was tested. Which Activity did it give?
**A.** inactive

**Q.** Which Activity does the source give for c1csc(-c2ccc(-c3cccs3)s2)c1 here?
**A.** Active
